A short description of series [1]: Curing of unsaturated polyester-styrene resin. Here is the method:
An unsaturated polyester resin was made by reacting maleic anhydride (1.0 mole), phthalic anhydride (1.0 mole), and propylene glycol (2.2 moles) until an acid number of 45-50 was obtained. To this was added hydroquinone at a 0.013% concentration. Seven parts of this unsaturated polyester was diluted with 3 parts of monomeric styrene to obtain a homogeneous blend having a viscosity of 13.08 poise and a specific gravity of 1.14.
To 20 grams of this blend was added 0.128 gram of alpha-(tert.-butylazo)isobutyronitrile and the resultant composition placed in a constant temperature bath at 212° F. (100° C.). […] At 180° F. (82.2° C.), a peak exotherm of 381° F. (193.9° C.) was obtained in 13.3 minutes. The resultant cured materials were very hard.
The procedure of Example III was used at 212° F. (100° C.) and 240° F. (115.6° C.) where peak exotherms of 414° F. (212.2° C.) and 440° F. (226.7° C.) were obtained after 10.0 and 5.3 minutes respectively using 0.2 gram of the 1-tert.-butylazo-1-cyanocyclohexane. The resultant cured resins were very hard.
The curing procedure and resin are described in Example III.

A short description of series [2]: Oxidation of iodide ion to free iodine.
The conditions of series [3]: for temperature at which it begins to evolve nitrogen: onset.
Series [4] in a line: Polymerization of styrene, dilatometer rates. The note with it: rate at 10% conversion. As for the experimental part:
A solution of styrene containing 5 × 10^-^4 moles per deciliter of alpha-(tert.-butylazo)isobutyronitrile was heated at 85° C. and the change in density, which is a measure of polymer formation, was followed by means of a dilatometer to measure polymerization rates at 5% and 10% conversion to polystyrene. […] Without the alpha-(tert.-butylazo)-isobutyronitrile, the 5 and 10% rates were 0.92 × 10^-^3 moles per liter per minute. Thus, this azo compound initiated the polymerization of styrene at 85° C.
The procedure of Example II was used at 85° C. and 100° C. […] Without the 1-tert.-butylazo-1-cyanocyclohexane, the 5% and 10% rates at 100° C. were 2.81 × 10^-^3 moles per liter per minute.
A solution of styrene containing 5×10^^-4 moles per deciliter of the tert.-alkyl-α-substituted-azoalkane was heated in a constant temperature oil bath (the temperature of the bath depending on the thermal stability of the individual azo compounds) and the change in density, which is a measure of polymer formation, was followed by means of a dilatometer to measure polymerization rates (Rp) at 5% and 10% conversion to polystyrene. The rates obtained at 5% and 10% conversion are recorded in moles per liter per minute in Table LXXXII for the individual azo compounds. Their rate at 10% conversion (f1) is divided by the rate of a standard (f2) at the same temperature and concentration to give an efficiency rating f1 / f2.

A short description of series [5]: Thermal decomposition half-life. Format: physicochemical. As for the experimental part:
(§1) It produces 179 cc. of gas per gram at 110° C. The following half-life data have been determined:
The following half-life data have been determined by gas evolution technique using trichlorobenzene as the solvent: […]

Series [6] is described as follows: High pressure polymerization of ethylene.
Series [7] is described as follows: Preliminary toxicological studies / toxicity.
A short description of series [8]: Solubility. It is filed as physicochemical. Particulars: petroleum and other organic solvents.
Series [9] can be described thus: Gas volume generated on thermal decomposition. It is filed as physicochemical. Particulars: 130° C. As for the experimental part:
as §1
It produces 146 cc. of gas per gram at 130° C.

For series [10] the following is noted: cited from earlier work.
For series [11] the following is noted: commercial compound, background statement; cited from earlier work.
A short description of series [12]: Emulsion polymerization of ethyl acrylate. Particulars: 3.65 × 10^-^4 moles initiator, 85°-87° C. As for the experimental part:
An emulsion containing 50 g. of deionized water, 40 g. ethyl acrylate, 4.8 g. Triton X-200, Rohm & Haas anionic surfactant, and 0.0769 g. (3.65 × 10^-^4 moles) α-tert-butylazo-α-methyl-γ-carboxy-butyronitrile (from Example X) was prepared. Approximately 25 g. of the emulsion was placed in a 250 ml. 4-neck round bottom flask equipped with a mechanical stirrer, thermometer and condenser. Nitrogen was passed through the system and the contents of the flask were heated to the reflux temperature of 82° C. When the temperature rose to 90° C., indicating polymerization was occurring, the balance of the emulsion was slowly added from a self-venting addition funnel, maintaining the temperature at 85°-87° C. At the end of the addition the temperature was raised to 95° C. for 5 minutes, a very small amount of hydroquinone added and the reaction cooled to room temperature. The total reaction times was 11/3 hours. The final pH was 3.6. A 5 g. aliquot was weighed into a tared dish and the monomers and water evaporated and the conversion of monomer to polymer was determined to be 94%.
A similar polymerization was run under the same conditions using 3.65 × 10^-^4 moles of the sodium salt of α-tert-butylazo-α-methyl-γ-carboxybutyronitrile as the initiator. The conversion was 92.3% and the final pH was 6.6.

The nature of series [13]: Curing of unsaturated polyester-styrene resin. This is another data set of the same source.
Where [14] appears, read: 240° F. (115.6° C.), 1.0 weight per cent.
[15] abbreviates: 265° F. (129.4° C.), 1.0 weight per cent.
[16] abbreviates: 180° F. (82.2° C.), 0.128 gram in 20 grams blend.
Where [17] appears, read: bath 212° F. (100° C.), 0.128 gram in 20 grams blend.
Setting [18] is: 85° C., standard f2 benzoyl peroxide.
The mark [19] stands for this setting: 180° F. (82.2° C.), 1.0 weight per cent.
Setting [20] is: 212° F. (100° C.), 1.0 weight per cent.
[21] abbreviates: room temperature, 1.0 weight per cent.

Structures can show the parent of a compound that is named as a salt. Where two headings read alike, the source gives them in different places.

Regarding `COC(=O)CNC(=O)N=NC(C)(C)C` [XVI, tert.-butylazo-N-carbmethoxymethylformamide], the “hardness of cured resin” value in [1] is listed as “very hard”. Also, in series [1] (setting [14]), the peak exotherm turned out to be 356 ° F and the “time to peak exotherm” value was 15.8 min. In addition, in [1] (setting [15]), the peak exotherm stood at 484 ° F and the “time to peak exotherm” value was 5.1 min. In [2], the “oxidizing of iodide ion” value is recorded as “oxidized iodide ion to free iodine”. Moreover, the “temperature at which it begins to evolve nitrogen” value (from here on “temperature at which it begins”) in [3] turned out to be 140 °C.

With `COC(C)(C)CC(C)(N=NC(C)(C)C)OC` (stereo not shown) [XXXVIII, 2-t-butylazo-4-methyl-2,4-dimethoxypentane], the “f1 /f2 efficiency rating” value in series [4] (115° C., standard f2 di-t-butyl peroxide) was 0.38.

On to `CC(C)(C)N=NC(C)(C)C#N` [Example I, Alpha-(tert.-butylazo)isobutyronitrile], for which the “hardness of cured resin” value in [1] is “very hard”. Moreover, in series [1] (setting [16]), the peak exotherm is reported as 381 ° F and the “time to peak exotherm” value was found to be 13.3 min. In addition, the “quality of cure” value in [1] (212° F. (100° C.)) is recorded as “excellent cure”. In addition, in series [1] (setting [17]), the peak exotherm turned out to be 424 ° F and the “time to peak exotherm” value amounted to 4.9 min. Besides, the “t 1/2” value in series [5] (70° C.) turned out to be 40.5 h. In addition, the “initiator performance” value in series [6] is reported as “especially advantageous initiators”. Besides, in [7], the “toxicity relative to IXA and its decomposition residue” value is “significantly less toxic”. Also, in series [8], the “solubility” value was “soluble in petroleum solvents”.

`CC(C)(C)N=NC1(C#N)CCCCC1` [Example IV, 1-tert.-butylazo-1-cyanocyclohexane]: the “hardness of cured resin” value in [1] is listed as “very hard”. In addition, the peak exotherm is 414 ° F in series [1] (212° F. (100° C.), 0.2 gram) and 440 ° F in series [1] (240° F. (115.6° C.), 0.2 gram). Also, the “time to peak exotherm” value in series [1] (212° F. (100° C.), 0.2 gram) was found to be 10.0 min; in series [1] (240° F. (115.6° C.), 0.2 gram) it was 5.3 min. In addition, the “t 1/2” value in [5] (96.3° C.) was 10.0 h; in series [5] (100° C.), 6.7 h; in [5] (110° C.), 2.3 h; in [5] (120° C.), “.75 h”. For the same molecule, the “initiator performance” value in [6] is recorded as “especially advantageous initiators”. Moreover, the gas produced in series [9] was 146 cc. of gas per gram. The “toxicity relative to IXA and its decomposition residue” value in [7] is “significantly less toxic”.

Turning to `COC(C)(C)CC(C)(N=NC(C)(C)C)N=[N+]=[N-]` (stereo not shown) [XLIV, 2-t-butylazo-2-azido-4-methyl-4-methoxypentane], the “f1 /f2 efficiency rating” value in series [4] (setting [18]) came out at 1.19.

On to `CC(C)(C)N=Nc1nc(N=NC(C)(C)C)nc(N=NC(C)(C)C)n1` [XXI, 2,4,6-Tri-(tert.-butylazo)-1,3,5-triazine], for which, in [2], the “oxidizing of iodide ion” value is listed as “oxidized iodide ion to free iodine”. Further, the “temperature at which it begins” value in [3] came out at 102 °C.

As to `CC(C)(C#N)N=NC(C)(C)C#N` [2, 2'-AZOBISISOBUTYRONITRILE], the “solubility” value in series [10] (common organic solvents: aromatic hydrocarbons, dioxane, alcohol, ether, carbon tetrachloride) is recorded as “very low or limited solubility”; in series [10] (petroleum hydrocarbon solvents), “insoluble”. In [11], the “toxicity” value is “toxic solid”.

With `CC(C)(C)N=NC(C)(C#N)CCC(=O)O` (stereo not drawn) [Example X, alpha-tert.-butylazo-alpha-methyl-gammacarboxybutyronitrile], in [1], the “hardness of cured resin” value is reported as “very hard”. For the same molecule, in [1] (setting [19]), the peak exotherm was 410 ° F and the “time to peak exotherm” value is 8.5 min. In [1] (setting [20]), the peak exotherm came to 422 ° F and the “time to peak exotherm” value amounted to 3.8 min. Further, the “temperature at which it begins” value in series [3] amounted to 85 °C. The “conversion of monomer to polymer” value in [12] is listed as 94%.

As for `CC(C)(C)N=NC1(c2ccccc2)CCCCC1` [Example LXIII, 1-t-Butylazo-1-phenylcyclohexane], in series [1] (bath 100° C.), the “Barcol Hardness” value is recorded as 35, the “Minutes to Peak Exotherm” value is 4.8 min and the “peak exotherm” value is recorded as 435 ° F. In series [4] (setting [18]), the “f1 /f2 efficiency rating” value stood at 1.32.

Turning to `CCCCC(C)(CC(C)C)N=NC(C)(C)C` (stereo not shown) [Example LXI, 4-t-Butylazo-2,4-dimethyloctane], in series [1] (bath 130° C.), the “Barcol Hardness” value amounted to 40 and the “Minutes to Peak Exotherm” value amounted to 11.1 min. In series [13] (bath 130° C.), the “peak exotherm” value amounted to 382 ° F.

Turning to `CC(C)CC(C)(N=NC(C)(C)C)c1ccccc1` (stereo not shown) [Example LXII, 2-t-Butylazo-2-phenyl-4-methylpentane], the “f1 /f2 efficiency rating” value in series [4] (70° C., standard f2 benzoyl peroxide) amounted to 1.41.

On to `CC(C)(C)N=NC(=O)C(C)(C)C` [Example XIX, Pivaloyl tert.-butyldiimide], for which, in [1], the “hardness of cured resin” value is “very hard”. The peak exotherm in series [1] (setting [19]) stood at 289 ° F; in series [13] (setting [21]), 139 ° F. Moreover, the “time to peak exotherm” value in series [1] (setting [19]) worked out at 4.9 min; in series [1] (setting [21]) it was 34.1 min. The “temperature at which it evolves nitrogen” value in [3] was determined as 35 °C.

Consider `CC(C)(C)N=NC1=CCCCC1` [XXIII, 1(-tert.-butylazo)cyclohexene], for which the “gelling of resin” value in series [13] (room temperature) is “gelled”. In addition, the “temperature at which it evolves nitrogen” value in series [3] worked out at 60 °C.

For `CC(C)(C)N=NC(=O)NCC(=O)O` [XVII, tert.-butylazo-N-carboxymethylformamide], the “oxidizing of iodide ion” value in series [2] was “oxidized iodide ion to free iodine”. Further, the “temperature at which it begins” value in series [3] worked out at 60 °C.

As for `CC(C)(N=NC(N)=O)c1ccccc1` [XVIII, Tert.-cumylazoformamide], the “hardness of cured resin” value in series [1] is reported as “very hard”. In series [1] (setting [14]), the peak exotherm is given as 422 ° F and the “time to peak exotherm” value was found to be 10.3 min. In addition, in series [1] (setting [15]), the peak exotherm is given as 454 ° F and the “time to peak exotherm” value was determined as 6.0 min. In [2], the “oxidizing of iodide ion” value is on record as “oxidized iodide ion to free iodine”. In series [3] (room temperature or on melting), the “gas/nitrogen evolution or decomposition” value is reported as “rapidly evolves nitrogen upon melting”.

As for `CC(C)(C)N=NC(C)(C#N)CCC(=O)O` (stereo not drawn) [sodium salt of α-tert-butylazo-α-methyl-γ-carboxybutyronitrile], the “conversion of monomer to polymer” value in [12] was found to be 92.3%.

Take `COC1(N=NC(C)(C)C)CCCCC1` [XXXV, 1-t-butylazo-1-methoxycyclohexane]: in [1] (bath 145° C.), the “Minutes to Peak Exotherm” value was 5.7 min and the “peak exotherm” value was found to be 396 ° F. Besides, the “Barcol Hardness” value in [13] (bath 145° C.) was 40.

Consider `CC(C)(C)N=NC1(N=[N+]=[N-])CCCCC1` [XLI, 1-t-butylazo-1-azidocyclohexane], for which, in series [4] (100° C., standard f2 t-butyl perbenzoate), the “f1 /f2 efficiency rating” value was 0.58.

Source of the values: patent US4007165A (priority 1974, dated 1977).
